The source of these data is the supplement of paper PMC10307832.

What all share (test): relative viability (nuclei count vs DMSO), 5 days (fraction); higher = more cells survive
Compound in assay [1]: C1/C(=C\C2=CC=CS2)/C(=O)/C(=C/C3=CC=CS3)/C1 + Cc1cc(Nc2cc(N3CCN(C)CC3)nc(Sc3ccc(NC(=O)C4CC4)cc3)n2)n[nH]1 [Tozasertib] (partner 0.1 µM)
The method, boiled down: (§1)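 Lung cancer cell lines, seeded in 1536-well plates, were treated the following day by pin tool with a single drug or with five library-drug doses (not always all listed) in √10 steps on top of a fixed anchor-drug dose. Cells were fixed and nuclei stained in one step after 5 days, and nuclei were counted. Relative viability is the nuclei count for treated wells divided by that for vehicle wells, reported as medians of duplicate plates.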

Compound in the assay “TPCA-1 + Navitoclax”: C1=CC(=CC=C1C2=CC(=C(S2)NC(=O)N)C(=O)N)F [TPCA-1] + CC1(C)CCC(c2ccc(Cl)cc2)=C(CN2CCN(c3ccc(C(=O)NS(=O)(=O)c4ccc(N[C@H](CCN5CCOCC5)CSc5ccccc5)c(S(=O)(=O)C(F)(F)F)c4)cc3)CC2)C1 [Navitoclax] (partner 0.5 µM)
The method, boiled down:
as §1

Compound in assay [2]: C[C@]12O[C@H](C[C@]1(O)CO)n1c3ccccc3c3c4c(c5c6ccccc6n2c5c31)CNC4=O [Lestaurtinib] + CC(=O)Nc1cccc(-n2c(=O)n(C3CC3)c(=O)c3c(Nc4ccc(I)cc4F)n(C)c(=O)c(C)c32)c1 [Trametinib] (partner 0.02 µM)
The gist of the method: as §1

Compound in the assay “Lestaurtinib + Lapatinib”: C[C@]12O[C@H](C[C@]1(O)CO)n1c3ccccc3c3c4c(c5c6ccccc6n2c5c31)CNC4=O [Lestaurtinib] + CS(=O)(=O)CCNCc1ccc(-c2ccc3ncnc(Nc4ccc(OCc5cccc(F)c5)c(Cl)c4)c3c2)o1 [Lapatinib] (partner 2 µM)
The gist of the method:
as §1

On to UMC-11, for which the relative viability was 0.204 in assay [1] (first compound 0.2 µM); 0.192 in assay [1] (first compound 0.6325 µM); 0.212 in assay [1] (first compound 2 µM); 0.202 in assay [1] (first compound 6.325 µM); 0.205 in assay [1] (first compound 20 µM); 0.354 in the assay with TPCA-1 + Navitoclax (first compound 0.04 µM). Further, the relative viability stood at 0.335 with TPCA-1 + Navitoclax (first compound 0.1265 µM); 0.394 with TPCA-1 + Navitoclax (first compound 0.4 µM); 0.415 with TPCA-1 + Navitoclax (first compound 1.265 µM); 0.253 with TPCA-1 + Navitoclax (first compound 4 µM); 0.746 in assay [2] (first compound 0.005 µM); 0.6 in assay [2] (first compound 0.01581 µM). Further, the relative viability worked out at 0.601 in assay [2] (first compound 0.05 µM); 0.311 in assay [2] (first compound 0.1581 µM); 0.155 in assay [2] (first compound 0.5 µM); 1.01 with Lestaurtinib + Lapatinib (first compound 0.005 µM); 0.921 with Lestaurtinib + Lapatinib (first compound 0.01581 µM); 0.65 with Lestaurtinib + Lapatinib (first compound 0.05 µM). Further, the relative viability with Lestaurtinib + Lapatinib (first compound 0.1581 µM) is 0.305; with Lestaurtinib + Lapatinib (first compound 0.5 µM), 0.196.
